Bridge positions count the residues as written; N and C are the ends. Ends that are not written are not given here.

The test system of one assay is Escherichia coli. Kind of assay: radial diffusion assay, antimicrobial effect. The class given is cell-based. The arrangement: key: (+) means the formation of an inhibition halo; (−) means no formation of an inhibition halo. An excerpt: (§1) In a radial diffusion assay, the activities stated in Table 1 could be measured for the peptides against different bacterial strains. In the Table, (+) means the formation of an inhibition halo, and (−) means no formation of an inhibition halo.
For “FIGLRRCLMGLGRCRDHCNVDEKEIQKCKMKKCCVGPKVVKLIK (disulfide 7-33, 14-28, 18-34) [hBD19]”, the “formation of an inhibition halo” value is reported as “(+)”.

Regarding “NTICHMQQGICRLFFCHSGEKKRGICSDPWNRCCVSNTDEEGKEKPEMD (disulfide 4-33, 11-26, 16-34) [hBD10]”, the “formation of an inhibition halo” value is recorded as “(+)”.

Turning to “TPGGTQRCWNLYGKCRYRCSKKERVYVYCINNKMCCVKPKYQPKERWWPF (disulfide 8-35, 15-29, 19-36) [hBD17]”, the “formation of an inhibition halo” value was “(+)”.

For another assay, the system named is Saccharomyces cerevisiae. Kind of assay: radial diffusion assay, antimicrobial effect. The class given is cell-based. The arrangement: key: (+) means the formation of an inhibition halo; (−) means no formation of an inhibition halo.
Text: as §1
“FIGLRRCLMGLGRCRDHCNVDEKEIQKCKMKKCCVGPKVVKLIK (disulfide 7-33, 14-28, 18-34) [hBD19]”: the “formation of an inhibition halo” value is on record as “(−)”.

On to “NTICHMQQGICRLFFCHSGEKKRGICSDPWNRCCVSNTDEEGKEKPEMD (disulfide 4-33, 11-26, 16-34) [hBD10]”, for which the “formation of an inhibition halo” value is given as “(+)”.

“TPGGTQRCWNLYGKCRYRCSKKERVYVYCINNKMCCVKPKYQPKERWWPF (disulfide 8-35, 15-29, 19-36) [hBD17]”: the “formation of an inhibition halo” value is listed as “(+)”.

The subject of another assay is Staphylococcus carnosus. The assay can be described thus: radial diffusion assay, antimicrobial effect. The class given is cell-based. The arrangement: key: (+) means the formation of an inhibition halo; (−) means no formation of an inhibition halo.
Text: as §1
As for “FIGLRRCLMGLGRCRDHCNVDEKEIQKCKMKKCCVGPKVVKLIK (disulfide 7-33, 14-28, 18-34) [hBD19]”, the “formation of an inhibition halo” value is reported as “(+)”.

As to “NTICHMQQGICRLFFCHSGEKKRGICSDPWNRCCVSNTDEEGKEKPEMD (disulfide 4-33, 11-26, 16-34) [hBD10]”, the “formation of an inhibition halo” value was “(+)”.

“TPGGTQRCWNLYGKCRYRCSKKERVYVYCINNKMCCVKPKYQPKERWWPF (disulfide 8-35, 15-29, 19-36) [hBD17]”: the “formation of an inhibition halo” value is recorded as “(+)”.
